Measurements published in article PMC7481290, “Halogenation as a tool to tune antimicrobial activity of peptoids” (Scientific Reports, 2020).
Converted amounts (≈) assume the structure as drawn. Non-standard residues stand in square brackets, D forms with d. Residues, ends and D or L forms follow the SMILES beside them. Nspe = C[C@H](NCC(=O)O)c1ccccc1; Nlys = NCCCCNCC(=O)O

Legend:
[1] = system: Methicillin-resistant S. aureus USA 300; type: cell-based, Staphylococcus aureus; settings: Table 2; MRSA USA 300
In short: (§1)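 Broth microdilution per CLSI in MHB II, final inoculum 5 × 10^5 CFU/mL, with twofold peptoid dilutions. Incubation was 18 h at 37 °C in ambient air. MIC was taken as the lowest concentration without visible growth, from two experiments on different days in technical triplicate.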

S. aureus ATCC 25923 = type: cell-based, Staphylococcus aureus; settings: Table 2; S. aureus ATCC 25923
In short: as §1

[2] = system: Methicillin-resistant S. epidermidis ATCC 51625; type: cell-based, Staphylococcus epidermidis; settings: Table 2; MRSE ATCC 51625
In short: as §1

[3] = system: Methicillin-resistant S. epidermidis ET-024; type: cell-based, Staphylococcus epidermidis; settings: Table 2; MRSE ET-024
In short: as §1

E. coli ATCC 25922 = type: cell-based, Escherichia coli; settings: Table 2; E. coli ATCC 25922
In short: as §1

[4] = system: P. aeruginosa PA01 (H103); type: cell-based, Pseudomonas aeruginosa; settings: Table 2; P. aeruginosa PA01 H103
In short: as §1

HaCaT cell line = type: cell-based, human; settings: 1 h exposure, MTS/PMS assay; interval in brackets
Description: An immortalized human keratinocytes (HaCaT) cell line (Gift from David G. Naym at Bispebjerg Hospital) were cultured to ∼90% confluence after 21–25 h of growth at 5% CO2 and 37 °C as previously. In brief, the cells were cultured in Dulbecco’s Modified Eagle’s Medium supplemented with 10% (v/v) fetal bovine serum, penicillin (100 IU/mL), and streptomycin (100 μg/mL), purchased from Sigma-Aldrich (St. Louis, MO, United States).
Cell viability assessment was performed on cell monolayers grown to ∼90% confluence in 96-well plates Corning Costar (Sigma-Aldrich, Brøndby, Denmark) by using the MTS/PMS assay as previously described. Briefly, the adhered cells were washed with 37 °C PBS solution (ThermoFisher Scientific, Roskilde) and exposed for 1 h at 37 °C to 100 μL of peptoids dissolved in the medium also used for culturing of the cell line (at concentrations in the range 0–1,000 μg/mL). The precise exposure-time were selected to enable comparison with related peptoid compounds[21],[35]. […] A plate reader (SpectraMax i3X; Molecular devices, San Jose, CA) was used to measure the absorbance at 492 nm. The relative viability was calculated by using 0.2% (w/v) sodium dodecyl sulfate (SDS) as the positive control, while cells exposed to medium without test compound were used as the negative control. […]

## C[C@@H](c1ccccc1)N(CC(N)=O)C(=O)CN(C(=O)CN(CCCCN)C(=O)CN(C(=O)CN(C(=O)CN(CCCCN)C(=O)CN(C(=O)CN(C(=O)CN(CCCCN)C(=O)CN(C(=O)CN(C(=O)CNCCCCN)[C@@H](C)c1ccccc1)[C@@H](C)c1ccccc1)[C@@H](C)c1ccccc1)[C@@H](C)c1ccccc1)[C@@H](C)c1ccccc1)[C@@H](C)c1ccccc1)[C@@H](C)c1ccccc1 [Peptoid 1, reference compound] (H-[Nlys][Nspe][Nspe][Nlys][Nspe][Nspe][Nlys][Nspe][Nspe][Nlys][Nspe][Nspe]-NH2)
[1]
  MIC MRSA^b: 8 µg/mL (≈ 4.4 µM)
S. aureus ATCC 25923
  MIC SA^a: 8 µg/mL (≈ 4.4 µM)
[2]
  MIC MRSE^d: 8 µg/mL (≈ 4.4 µM)
[3]
  MIC MRSE^c: 4 µg/mL (≈ 2.2 µM)
E. coli ATCC 25922
  MIC EC^e: 8 µg/mL (≈ 4.4 µM)
[4]
  MIC PA^f: 16 µg/mL (≈ 8.79 µM)
HaCaT cell line
  IC50 towards HaCaT cell line: 35.0 (30.9 to 39.9) μg/mL
